According to PubChem BioAssay AID248 (DTP/NCI, 2004):
Several values for one entry are separate records, joined by “and”; a condition that tells them apart may be missing. Identical values can stand only once. Inconclusive results and toxic doses are left out.

System: L1210 leukemia ip in BDF1 mice, survival T/C
Assay: NCI In Vivo Anticancer Drug Screen. Data for tumor model L1210 Leukemia (intraperitoneal) in B6D2F1 (BDF1) mice
Settings: endpoint: mean survival time, higher = longer survival
Procedure, shortened: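 Antitumor effect is assessed in tumor-bearing animals. Survival in the compound arm is compared with a vehicle-dosed control arm and expressed as their quotient.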

[1] = dose: 25.0 mg/kg/injection, schedule: Q04DX002 (ip), vehicle: Klucel (hydroxypropylcellulose) (HPC)
[2] = dose: 100.0 mg/kg/injection, schedule: Q04DX002 (ip), vehicle: Klucel (hydroxypropylcellulose) (HPC)
[3] = dose: 200.0 mg/kg/injection, schedule: Q04DX002 (ip), vehicle: Klucel (hydroxypropylcellulose) (HPC)
[4] = dose: 400.0 mg/kg/injection, schedule: Q04DX002 (ip), vehicle: Klucel (hydroxypropylcellulose) (HPC)
[5] = dose: 100.0 mg/kg/injection, schedule: Q04DX003 (ip), vehicle: saline with Tween-80
[6] = dose: 200.0 mg/kg/injection, schedule: Q04DX003 (ip), vehicle: saline with Tween-80
[7] = dose: 400.0 mg/kg/injection, schedule: Q04DX003 (ip), vehicle: saline with Tween-80
[8] = dose: 25.0 mg/kg/injection, schedule: Q01DX009 (ip), vehicle: saline
[9] = dose: 100.0 mg/kg/injection, schedule: Q01DX009 (ip), vehicle: saline
[10] = dose: 50.0 mg/kg/injection, schedule: Q01DX001 (ip), vehicle: saline
[11] = dose: 100.0 mg/kg/injection, schedule: Q01DX001 (ip), vehicle: saline
[12] = dose: 200.0 mg/kg/injection, schedule: Q01DX001 (ip), vehicle: saline
[13] = dose: 400.0 mg/kg/injection, schedule: Q01DX001 (ip), vehicle: saline
[14] = dose: 100.0 mg/kg/injection, schedule: Q04DX003 (ip), vehicle: Klucel (hydroxypropylcellulose) (HPC)
[15] = dose: 200.0 mg/kg/injection, schedule: Q04DX003 (ip), vehicle: Klucel (hydroxypropylcellulose) (HPC)
[16] = dose: 400.0 mg/kg/injection, schedule: Q04DX003 (ip), vehicle: Klucel (hydroxypropylcellulose) (HPC)
[17] = dose: 100.0 mg/kg/injection, schedule: Q01DX009 (ip), vehicle: Klucel (hydroxypropylcellulose) (HPC)
[18] = dose: 200.0 mg/kg/injection, schedule: Q01DX009 (ip), vehicle: Klucel (hydroxypropylcellulose) (HPC)
[19] = dose: 400.0 mg/kg/injection, schedule: Q01DX009 (ip), vehicle: Klucel (hydroxypropylcellulose) (HPC)

## COc1cc(C(=O)CO)cc(OC)c1OC(C)=O
dose: 5.0 mg/kg/injection, schedule: Q01DX001 (ip), vehicle: saline
  T/C: 97 % of control
dose: 10.0 mg/kg/injection, schedule: Q01DX001 (ip), vehicle: saline
  T/C: 103 % of control
dose: 20.0 mg/kg/injection, schedule: Q01DX001 (ip), vehicle: saline
  T/C: 89 % of control
dose: 40.0 mg/kg/injection, schedule: Q01DX001 (ip), vehicle: saline
  T/C: 97 % of control
dose: 80.0 mg/kg/injection, schedule: Q01DX001 (ip), vehicle: saline
  T/C: 92 % of control

## CC(=O)[C@H]1CC[C@H]2[C@@H]3C[C@H](C)C4=CC(=O)CC[C@]4(C)[C@@]3(F)[C@@H](O)C[C@]12C
dose: 12.5 mg/kg/injection, schedule: Q04DX002 (ip), vehicle: Klucel (hydroxypropylcellulose) (HPC)
  T/C: 102 % of control
[1]
  T/C: 105 % of control
dose: 50.0 mg/kg/injection, schedule: Q04DX002 (ip), vehicle: Klucel (hydroxypropylcellulose) (HPC)
  T/C: 102 % of control
dose: 100.0 mg/kg/injection, schedule: Q04DX003 (ip), vehicle: steriod suspending solution
  T/C: 96 % of control
dose: 200.0 mg/kg/injection, schedule: Q04DX003 (ip), vehicle: steriod suspending solution
  T/C: 105 % of control
dose: 400.0 mg/kg/injection, schedule: Q04DX003 (ip), vehicle: steriod suspending solution
  T/C: 102 % of control

## O=C1c2ccccc2C2(Br)C(=O)c3ccccc3C12Br (stereo not drawn)
[2]
  T/C: 104 % of control
[3]
  T/C: 101 % of control
[4]
  T/C: 93 % of control

## S=C(N/N=C/C(c1ccccc1)c1ccccc1)Nc1ccccc1
dose: 100.0 mg/kg/injection, schedule: Q01DX001 (ip), vehicle: saline with Tween-80
  T/C: 95 % of control
dose: 100.0 mg/kg/injection, schedule: Q01DX009 (ip), vehicle: saline with Tween-80
  T/C: 86 % of control
dose: 200.0 mg/kg/injection, schedule: Q01DX001 (ip), vehicle: saline with Tween-80
  T/C: 102 % of control
dose: 400.0 mg/kg/injection, schedule: Q01DX001 (ip), vehicle: saline with Tween-80
  T/C: 98 % of control
dose: 400.0 mg/kg/injection, schedule: Q01DX009 (ip), vehicle: saline with Tween-80
  T/C: 86 % of control

## CC1(c2ccccc2)OCC(CCl)O1 (stereo not drawn)
dose: 222.0 mg/kg/injection, schedule: Q01DX Z (ip), vehicle: saline
  T/C: 95 % of control
dose: 333.0 mg/kg/injection, schedule: Q01DX Z (ip), vehicle: saline
  T/C: 95 % of control
dose: 500.0 mg/kg/injection, schedule: Q01DX Z (ip), vehicle: saline
  T/C: 91 % of control

## CCN(CC)C(C(=O)Nc1ccccc1)C(=O)Nc1ccccc1
[5]
  T/C: 92 % of control
[6]
  T/C: 94 % of control
[7]
  T/C: 90 % of control

## NCCSC(c1ccccc1)(c1ccccc1)c1ccccc1
[8]
  T/C: 94 % of control
dose: 50.0 mg/kg/injection, schedule: Q01DX009 (ip), vehicle: saline
  T/C: 103 % of control
[9]
  T/C: 107 % of control

## CCOC(=O)c1ccc(C)[n+]([O-])c1
[10]
  T/C: 96 % of control
[11]
  T/C: 98 % of control
[12]
  T/C: 100 % of control
[13]
  T/C: 93 % of control

## CCC(C)NC(=O)Oc1cccc(NC(=O)N(C)C)c1 (stereo not drawn)
[5]
  T/C: 92 % of control
[6]
  T/C: 89 % of control
[7]
  T/C: 90 % of control

## CC(=O)Oc1cc(C(C)C)c(OCCN(C)C)cc1C
dose: 6.25 mg/kg/injection, schedule: Q01DX009 (ip), vehicle: saline
  T/C: 94 % of control
dose: 12.5 mg/kg/injection, schedule: Q01DX009 (ip), vehicle: saline
  T/C: 98 % of control
[8]
  T/C: 100 % of control

## CC1=CCC(=O)C2(C)CC(O)C(C(C)C(=O)O)C=C12 (stereo not drawn)
dose: 100.0 mg/kg/injection, schedule: Q04DX003 (ip), vehicle: acetone
  T/C: 97 % of control
dose: 200.0 mg/kg/injection, schedule: Q04DX003 (ip), vehicle: acetone
  T/C: 95 % of control
dose: 400.0 mg/kg/injection, schedule: Q04DX003 (ip), vehicle: acetone
  T/C: 105 % of control

## N=C(N=C(Cc1ccccc1)c1ccccc1)c1ccccc1
dose: 100.0 mg/kg/injection, schedule: Q01DX001 (ip), vehicle: Klucel (hydroxypropylcellulose) (HPC)
  T/C: 92 % of control
[14]
  T/C: 104 % of control
dose: 200.0 mg/kg/injection, schedule: Q01DX001 (ip), vehicle: Klucel (hydroxypropylcellulose) (HPC)
  T/C: 92 % of control
[15]
  T/C: 96 % of control
dose: 400.0 mg/kg/injection, schedule: Q01DX001 (ip), vehicle: Klucel (hydroxypropylcellulose) (HPC)
  T/C: 94 % of control
[16]
  T/C: 91 % of control

## CN1CCC(CCOCc2ccccc2)(CN2c3ccccc3Sc3ccccc32)C1 (stereo not drawn)
dose: 6.25 mg/kg/injection, schedule: Q01DX009 (ip), vehicle: saline with Tween-80
  T/C: 93 % of control
dose: 12.5 mg/kg/injection, schedule: Q01DX009 (ip), vehicle: saline with Tween-80
  T/C: 98 % of control
dose: 25.0 mg/kg/injection, schedule: Q01DX009 (ip), vehicle: saline with Tween-80
  T/C: 93 % of control

## CC(C)(C)C(=O)CC(=O)C(C)(C)C.CC(C)(C)C(=O)CC(=O)C(C)(C)C.CC(C)(C)C(=O)CC(=O)C(C)(C)C.[Yb]
dose: 100.0 mg/kg/injection, schedule: Q01DX005 (ip), vehicle: Klucel (hydroxypropylcellulose) (HPC)
  T/C: 97 % of control
[17]
  T/C: 97 % of control
[2]
  T/C: 96 % of control
dose: 200.0 mg/kg/injection, schedule: Q01DX005 (ip), vehicle: Klucel (hydroxypropylcellulose) (HPC)
  T/C: 105 % of control
[18]
  T/C: 97 % of control
[3]
  T/C: 107 % of control
dose: 400.0 mg/kg/injection, schedule: Q01DX005 (ip), vehicle: Klucel (hydroxypropylcellulose) (HPC)
  T/C: 101 % of control
[19]
  T/C: 97 % of control
[4]
  T/C: 96 % of control

## O=c1cc(Nc2cccc(Cl)c2)[nH]c(=O)[nH]1
dose: 35.0 mg/kg/injection, schedule: Q01DX001 (ip), vehicle: Klucel (hydroxypropylcellulose) (HPC)
  T/C: 92 % of control
dose: 70.0 mg/kg/injection, schedule: Q01DX001 (ip), vehicle: Klucel (hydroxypropylcellulose) (HPC)
  T/C: 92 % of control
dose: 140.0 mg/kg/injection, schedule: Q01DX001 (ip), vehicle: Klucel (hydroxypropylcellulose) (HPC)
  T/C: 98 % of control

## O=Cc1ccc(N(c2ccccc2)c2ccccc2)cc1
[17]
  T/C: 102 % of control
[14]
  T/C: 96 % of control
[18]
  T/C: 91 % of control
[15]
  T/C: 100 % of control
[19]
  T/C: 94 % of control
[16]
  T/C: 94 % of control

## CC(=O)OC1COC(n2cnc3c(=O)[nH]c(N)nc32)C(OC(C)=O)C1OC(C)=O (stereo not drawn)
[10]
  T/C: 104 % of control
[11]
  T/C: 104 % of control
[12]
  T/C: 95 % of control
[13]
  T/C: 93 % of control

## CCCCCCCCCCCCCCCCCC(=O)[O][Pb]([CH3])([CH3])[CH3]
[1]
  T/C: 97 % of control

## O=[N+]([O-])c1ccc(Cc2ccc([N+](=O)[O-])cc2)cc1
[5]
  T/C: 102 % of control
[6]
  T/C: 109 % of control
[7]
  T/C: 98 % of control

## O=NNc1ccccn1
dose: 6.25 mg/kg/injection, schedule: Q04DX003 (ip), vehicle: saline
  T/C: 111 % of control
dose: 8.0 mg/kg/injection, schedule: Q01DX009 (ip), vehicle: saline
  T/C: 116 % of control
dose: 8.0 mg/kg/injection, schedule: Q04DX003 (ip), vehicle: saline
  T/C: 121 % of control and 123 % of control
dose: 12.0 mg/kg/injection, schedule: Q01DX009 (ip), vehicle: saline
  T/C: 106 % of control
dose: 12.0 mg/kg/injection, schedule: Q04DX003 (ip), vehicle: saline
  T/C: 156 % of control
dose: 18.0 mg/kg/injection, schedule: Q01DX009 (ip), vehicle: saline
  T/C: 119 % of control
dose: 50.0 mg/kg/injection, schedule: Q04DX003 (ip), vehicle: saline
  T/C: 114 % of control

## O=S(=O)(Oc1ccc(Cl)cc1)c1ccc(Cl)cc1
[9]
  T/C: 88 % of control
dose: 100.0 mg/kg/injection, schedule: Q04DX003 (ip), vehicle: saline
  T/C: 103 % of control
dose: 200.0 mg/kg/injection, schedule: Q04DX003 (ip), vehicle: saline
  T/C: 98 % of control
dose: 400.0 mg/kg/injection, schedule: Q01DX009 (ip), vehicle: saline
  T/C: 90 % of control
dose: 400.0 mg/kg/injection, schedule: Q04DX003 (ip), vehicle: saline
  T/C: 103 % of control
